Test results as given in patent US10913710B2, “Benzene disulfonamide for the treatment of cancer” (priority 2017, dated 2021).
pKd: −log10 of the molar value.

Biological target: PDEδ (Homo sapiens (Human), UniProt O43924)
Assay: Fluorescence polarization competition binding assay: displacement titration of labeled Atorvastatin probe for KD
Conditions: not given
Protocol: Example D.2: Displacement Titrations of Labeled Atorvastatin-Probe for the Determination of KD Values
Displacement Titrations of Labeled Atorvastatin-Probe for the Determination of KD Values:
The purification was followed by size exclusion gel filtration on a Superdex 75 S26/60 column using buffer A (25 mM Tris-HCl, pH 7.5, 150 mM NaCl and 3 mM DTE).

Question: How did the pKd turn out when `CC(C)(C)[Si](C)(C)Oc1ccc(CNS(=O)(=O)c2ccc(S(=O)(=O)N(Cc3ccc(Cl)cc3)C3CCCC3)cc2)cc1` [Compound 15] was run?
Answer: 7.00 to 7.52

Same assay, conditions: fluorescence polarization assay; activity classes; read-out: KD

Question: How did the pKd turn out when `O=S(=O)(c1ccc(S(=O)(=O)N(Cc2ccccn2)C2CCCO2)cc1)N(Cc1ccccn1)C1CCCO1` (stereo not shown) [Compound 1] was run?
Answer: 6.00 to 7.00

Question: With `Nc1ccc(Br)c(CN(CC2CCNCC2)S(=O)(=O)c2ccc(S(=O)(=O)N(Cc3ccc(Cl)cc3)C3CCCC3)cc2)c1` [Compound 2, N1-(5-amino-2-bromobenzyl)-N4-(4-chlorobenzyl)-N4-cyclopentyl-N1-(piperidin-4-ylmethyl)benzene-1,4-disulfonamide] as the molecule, how does the pKd read?
Answer: 6.00 to 7.00

Question: With `CC(C)(C)OC(=O)N1CCC(CN(Cc2ccccc2)S(=O)(=O)c2ccc(S(=O)(=O)NC3CCCC3)cc2)CC1` [Compound 3] as the molecule, how does the pKd read?
Answer: < 6.00

Question: With `CC(C)(C)OC(=O)N1CCC(CN(Cc2ccccc2)S(=O)(=O)c2ccc(S(=O)(=O)N(Cc3cc(Br)cc(Br)c3)C3CCCC3)cc2)CC1` [Compound 4, tert-butyl 4-(((N-benzyl-4-(N-cyclopentyl-N-(3,5-dibromobenzyl)sulfamoyl)phenyl)sulfonamido)methyl)piperidine-1-carboxylate] as the molecule, how does the pKd read?
Answer: 6.00 to 7.00

Question: With `CNc1ncc(Br)c(CN(CC2CCCCC2)S(=O)(=O)c2ccc(S(=O)(=O)N(Cc3ccc(Cl)cc3)C3CCCC3)cc2)n1` [Compound 5, N1-((5-bromo-2-(methylamino)pyrimidin-4-yl)methyl)-N4-(4-chlorobenzyl)-N1-(cyclohexylmethyl)-N4-cyclopentylbenzene-1,4-disulfonamide] as the molecule, how does the pKd read?
Answer: 7.00 to 7.52

Question: How did the pKd turn out when `CN1CCC(CN(Cc2ccccc2)S(=O)(=O)c2ccc(S(=O)(=O)N(Cc3ccc(Cl)cc3)C3CCCC3)cc2)CC1` [Compound 6, N1-benzyl-N4-(4-chlorobenzyl)-N4-cyclopentyl-N1-((1-methylpiperidin-4-yl)methyl)benzene-1,4-disulfonamide] was run?
Answer: 7.52 to 9.00

Question: `O=S(=O)(NCC1CCCCC1)c1ccc(S(=O)(=O)N(Cc2ccc(Cl)cc2)C2CCCC2)cc1` [Compound 8] was tested. Which pKd did it give?
Answer: 7.00 to 7.52

Question: With `O=S(=O)(c1ccc(S(=O)(=O)N(Cc2ccc(Cl)cc2)C2CCCC2)cc1)N(Cc1ccccc1)CC1CCCCC1` [Compound 9, N1-benzyl-N4-(4-chlorobenzyl)-N1-(cyclohexylmethyl)-N4-cyclopentylbenzene-1,4-disulfonamide] as the molecule, how does the pKd read?
Answer: 7.52 to 9.00

Question: `O=S(=O)(c1ccc(S(=O)(=O)N(Cc2ccc(Cl)cc2)C2CCCC2)cc1)N(CCN1CCNCC1)Cc1ccccc1` [Compound 10, N1-benzyl-N4-(4-chlorobenzyl)-N4-cyclopentyl-N1-(2-(piperazin-1-yl)ethyl)benzene-1,4-disulfonamide] was tested. Which pKd did it give?
Answer: 7.52 to 9.00

Question: With `O=S(=O)(c1ccc(S(=O)(=O)N(Cc2ccc(Cl)cc2)C2CCCC2)cc1)N(Cc1cnccn1)CC1CCNCC1` [Compound 11, N1-(4-chlorobenzyl)-N1-cyclopentyl-N4-(piperidin-4-ylmethyl)-N4-(pyrazin-2-ylmethyl)benzene-1,4-disulfonamide] as the molecule, how does the pKd read?
Answer: 7.52 to 9.00

Question: With `O=S(=O)(c1ccc(S(=O)(=O)N(Cc2cnc(Cl)cn2)C2CCCC2)cc1)N(Cc1ccccc1)CC1CCNCC1` [Compound 12, N1-benzyl-N4-((5-chloropyrazin-2-yl)methyl)-N4-cyclopentyl-N1-(piperidin-4-ylmethyl)benzene-1,4-disulfonamide] as the molecule, how does the pKd read?
Answer: 7.52 to 9.00

Question: How did the pKd turn out when `O=S(=O)(NCc1ccccc1)c1ccc(S(=O)(=O)N(Cc2ccc(Cl)cc2)C2CCCC2)cc1` [Compound 13] was run?
Answer: 7.00 to 7.52

Question: `O=S(=O)(NCc1ccc(O)cc1)c1ccc(S(=O)(=O)N(Cc2ccc(Cl)cc2)C2CCCC2)cc1` [Compound 14] was tested. Which pKd did it give?
Answer: 7.00 to 7.52

Question: With `O=S(=O)(c1ccc(S(=O)(=O)N(Cc2cccc(Br)c2)C2CCCC2)cc1)N(Cc1ccccc1)CC1CCNCC1` [Compound 17, N1-benzyl-N4-(3-bromobenzyl)-N4-cyclopentyl-N1-(piperidin-4-ylmethyl)benzene-1,4-disulfonamide] as the molecule, how does the pKd read?
Answer: 7.00 to 7.52

Question: With `O=S(=O)(c1ccc(S(=O)(=O)N(Cc2ccccc2)CC2CCNCC2)cc1)N(Cc1ccccc1)CC1CCNCC1` [Compound 18, N1,N4-dibenzyl-N1,N4-bis(piperidin-4-ylmethyl)benzene-1,4-disulfonamide] as the molecule, how does the pKd read?
Answer: 6.00 to 7.00

Question: `CNc1nccc(CN(CC2CCCCC2)S(=O)(=O)c2ccc(S(=O)(=O)N(Cc3ccc(Cl)cc3)C3CCCC3)cc2)n1` [Compound 20, N1-(4-chlorobenzyl)-N4-(cyclohexylmethyl)-N1-cyclopentyl-N4-((2-(methylamino)pyrimidin-4-yl)methyl)benzene-1,4-disulfonamide] was tested. Which pKd did it give?
Answer: 7.00 to 7.52

Question: `COC(=O)c1ccc(CN(CC2CCNCC2)S(=O)(=O)c2ccc(S(=O)(=O)N(Cc3ccc(Cl)cc3)C3CCCC3)cc2)cc1N` [Compound 23, methyl 2-amino-4-(((4-(N-(4-chlorobenzyl)-N-cyclopentylsulfamoyl)-N-(piperidin-4-ylmethyl)phenyl)sulfonamido)methyl)benzoate] was tested. Which pKd did it give?
Answer: 7.52 to 9.00

Question: How did the pKd turn out when `CC(C)(C)c1cc(Br)cc(CN(C2CCCC2)S(=O)(=O)c2ccc(S(=O)(=O)N(Cc3ccccc3)CC3CCNCC3)cc2)c1` [Compound 24, N1-benzyl-N4-(3-bromo-5-(tert-butyl)benzyl)-N4-cyclopentyl-N1-(piperidin-4-ylmethyl)benzene-1,4-disulfonamide] was run?
Answer: 7.00 to 7.52

Question: `O=S(=O)(c1ccc(S(=O)(=O)N(Cc2cc(Br)cc(C(F)(F)F)c2)C2CCCC2)cc1)N(Cc1ccccc1)CC1CCNCC1` [Compound 25, N1-benzyl-N4-(3-bromo-5-(trifluoromethyl)benzyl)-N4-cyclopentyl-N1-(piperidin-4-ylmethyl)benzene-1,4-disulfonamide] was tested. Which pKd did it give?
Answer: 6.00 to 7.00

Question: `O=S(=O)(c1ccc(S(=O)(=O)N(Cc2ccc(Cl)cc2)C2CCCC2)cc1)N(Cc1ccccc1)CC1CCCNC1` (stereo not shown) [Compound 26, N1-benzyl-N4-(4-chlorobenzyl)-N4-cyclopentyl-N1-(piperidin-3-ylmethyl)benzene-1,4-disulfonamide] was tested. Which pKd did it give?
Answer: 7.52 to 9.00

Question: How did the pKd turn out when `O=S(=O)(c1ccc(S(=O)(=O)N(Cc2ccc(Cl)cc2)C2CCCC2)cc1)N(Cc1cncnc1)CC1CCNCC1` [Compound 27, N1-(4-chlorobenzyl)-N1-cyclopentyl-N4-(piperidin-4-ylmethyl)-N4-(pyrimidin-5-ylmethyl)benzene-1,4-disulfonamide] was run?
Answer: 7.52 to 9.00

Question: How did the pKd turn out when `CC(C)(C)[Si](C)(C)OCCN(CC1CCCCC1)S(=O)(=O)c1ccc(S(=O)(=O)N(Cc2ccc(Cl)cc2)C2CCCC2)cc1` [Compound 28] was run?
Answer: 6.00 to 7.00

Question: How did the pKd turn out when `CC(C)(C)[Si](C)(C)OCCCN(CC1CCCCC1)S(=O)(=O)c1ccc(S(=O)(=O)N(Cc2ccc(Cl)cc2)C2CCCC2)cc1` [Compound 29] was run?
Answer: 6.00 to 7.00

Question: With `CC(C)(C)[Si](C)(C)OCCCCN(CC1CCCCC1)S(=O)(=O)c1ccc(S(=O)(=O)N(Cc2ccc(Cl)cc2)C2CCCC2)cc1` [Compound 30] as the molecule, how does the pKd read?
Answer: 6.00 to 7.00

Question: How did the pKd turn out when `O=S(=O)(c1ccc(S(=O)(=O)N(Cc2ccc(Cl)cc2)C2CCCC2)cc1)N(CCO)CC1CCCCC1` [Compound 31] was run?
Answer: 7.00 to 7.52

Question: With `O=S(=O)(c1ccc(S(=O)(=O)N(Cc2ccc(Cl)cc2)C2CCCC2)cc1)N(CCCO)CC1CCCCC1` [Compound 32] as the molecule, how does the pKd read?
Answer: 7.00 to 7.52

Question: With `O=S(=O)(c1ccc(S(=O)(=O)N(Cc2ccc(Cl)cc2)C2CCCC2)cc1)N(CCCCO)CC1CCCCC1` [Compound 33] as the molecule, how does the pKd read?
Answer: 6.00 to 7.00

Question: With `O=S(=O)(c1ccc(S(=O)(=O)N(Cc2ccc(Cl)cc2)C2CCCC2)cc1)N(Cc1ccccc1Br)CC1CCCCC1` [Compound 34, N1-(2-bromobenzyl)-N4-(4-chlorobenzyl)-N1-(cyclohexylmethyl)-N4-cyclopentylbenzene-1,4-disulfonamide] as the molecule, how does the pKd read?
Answer: 7.00 to 7.52

Question: How did the pKd turn out when `O=S(=O)(c1ccc(S(=O)(=O)N(Cc2ccc(Cl)cc2)C2CCCC2)cc1)N(Cc1cccc(Br)c1)CC1CCCCC1` [Compound 35, N1-(3-bromobenzyl)-N4-(4-chlorobenzyl)-N1-(cyclohexylmethyl)-N4-cyclopentylbenzene-1,4-disulfonamide] was run?
Answer: 7.00 to 7.52

Question: With `O=S(=O)(c1ccc(S(=O)(=O)N(Cc2ccc(Cl)cc2)C2CCCC2)cc1)N(CC1CCCCC1)c1ccccc1Br` [Compound 36, N1-(2-bromophenyl)-N4-(4-chlorobenzyl)-N1-(cyclohexylmethyl)-N4-cyclopentylbenzene-1,4-disulfonamide] as the molecule, how does the pKd read?
Answer: 7.00 to 7.52

Question: How did the pKd turn out when `O=S(=O)(c1ccc(S(=O)(=O)N(Cc2ccc(Cl)cc2)C2CCCC2)cc1)N(CC1CCCCC1)c1cc(C(F)(F)F)ccc1Br` [Compound 37, N1-(2-bromo-5-(trifluoromethyl)phenyl)-N4-(4-chlorobenzyl)-N1-(cyclohexylmethyl)-N4-cyclopentylbenzene-1,4-disulfonamide] was run?
Answer: 7.00 to 7.52

Question: With `O=CC1Cc2ccccc2N1S(=O)(=O)c1ccc(S(=O)(=O)N(Cc2ccc(Cl)cc2)C2CCCC2)cc1` (stereo not shown) [Compound 38] as the molecule, how does the pKd read?
Answer: 6.00 to 7.00

Question: How did the pKd turn out when `O=S(=O)(NCC1CCOCC1)c1ccc(S(=O)(=O)N(Cc2ccc(Cl)cc2)C2CCCC2)cc1` [Compound 39] was run?
Answer: 7.00 to 7.52

Question: How did the pKd turn out when `CCOC(=O)c1ccccc1CN(CC1CCOCC1)S(=O)(=O)c1ccc(S(=O)(=O)N(Cc2ccc(Cl)cc2)C2CCCC2)cc1` [Compound 40, ethyl 2-(((4-(N-(4-chlorobenzyl)-N-cyclopentylsulfamoyl)-N-((tetrahydro-2H-pyran-4-yl)methyl)phenyl)sulfonamido)methyl)benzoate] was run?
Answer: 6.00 to 7.00

Question: `Cc1ccsc1N(Cc1ccccn1)S(=O)(=O)c1ccc(S(=O)(=O)N(Cc2ccccn2)c2sccc2C)cc1` [Compound 41] was tested. Which pKd did it give?
Answer: < 6.00

Question: With `Cc1ccc(CN(C2CCCC2)S(=O)(=O)c2ccc(S(=O)(=O)N(Cc3ccccn3)c3sccc3C)cc2)cc1` [Compound 42] as the molecule, how does the pKd read?
Answer: 6.00 to 7.00

Question: With `Cc1ccc(CN(C2CCCC2)S(=O)(=O)c2ccc(S(=O)(=O)N(Cc3ccccn3)c3sccc3C)cc2)cc1Cl` [Compound 43] as the molecule, how does the pKd read?
Answer: 6.00 to 7.00

Question: `O=S(=O)(NCC1CCNCC1)c1ccc(S(=O)(=O)N(Cc2ccc(Cl)cc2)C2CCCC2)cc1` [Compound 45, N1-(4-chlorobenzyl)-N1-cyclopentyl-N4-(piperidin-4-ylmethyl)benzene-1,4-disulfonamide] was tested. Which pKd did it give?
Answer: 7.52 to 9.00

Question: How did the pKd turn out when `CCN(CC)S(=O)(=O)c1ccc(S(=O)(=O)N(Cc2ccccn2)Cc2ccco2)cc1` [Compound 46, N1,N1-diethyl-N4-(furan-2-ylmethyl)-N4-(pyridin-2-ylmethyl)benzene-1,4-disulfonamide] was run?
Answer: 6.00 to 7.00
